Holding throughout (type): cell-based
Experiment [1] addresses T1, human S1P5 receptor (S1PR5) (Homo sapiens, UniProt Q9H228).
T1 construct: host or cells: CHO-K1
Nature of the experiment: Intracellular Ca2+ release (method 1), agonist potency and efficacy, S1P5. The settings on record: for Emax: read-out: hS1P5 EMax. As for the experimental part: (§1) Agonistic activity and efficacy of compounds was assessed in recombinant cells using method 1 described below.
(§2) Agonist potency and efficacy were assessed by measurement of intracellular Ca^2+ release. Recombinant CHO-K1 cells (Euroscreen, Brussels, Belgium) expressing human S1PR5, S1PR1, S1PR3 or S1PR4 receptors, aequorin, and GTP binding protein Gq/i5 were cultured using a medium containing nutrient mixture F-12 Ham (Sigma-Aldrich) with 10% FBS, and 100 μg/mL gentamicin and equilibrated at 5% CO2.
(§3) 15,000 cells in 20 μL medium were seeded into Biocoat poly-D-Lysine coated 384 well plates (Becton Dickinson #35-6663) and grown to 95% confluency after 24 h.
(§4) Culture medium was replaced by an assay buffer consisting of HBBS with Ca^2+ and Mg^2+ (Invitrogen #14025-050), 20 mmol/L Hepes (Sigma-Aldrich #H-3375), 2.5 mmol/L probenecid (Sigma-Aldrich #P-8761, and 0.1% BSA (Sigma-Aldrich #A-7030) pH 7.4. The Calcium 5 no-wash FLIPR assay kit (Molecular Devices #5000625) was performed as described in the kit instructions. Cells were incubated with Calcium 5 dye for 1 h at 37° C., 5% CO2 in the dark. After 45 min adaptation to RT assessment of agonist stimulation of intracellular Ca^2+ release was performed by addition of test compounds at various concentrations obtained by serial dilution. Phospho-fingolimod was used as positive control and reference agonist (intrinsic activity 100%).
(§5) Agonism of test compounds at the human S1Px receptors were characterized by the EC50 values (potencies) deduced from a nonlinear 4 parametric logistic curve fit to the measured fluorescence data after normalization to the lower and upper plateaus of the fitted reference agonist's (phospho-fingolimod)effect curve and by their efficacy (Emax) values represented by their maximum achievable effects in % of the reference agonist's efficacy, which is defined as an Emax of 100%.

The target of experiment [2] is T2, human S1P1 receptor (S1PR1) (Homo sapiens, UniProt P21453).
T2 construct: host or cells: CHO-K1
Briefly: Intracellular Ca2+ release (method 1), agonist potency, S1P1. The settings on record: CHO-K1 cells expressing human S1PR1; cells given as bound. As for the experimental part: as §1, §2, §3, §4, §5

The target in experiment [3] is T3, human S1P3 receptor (S1PR3) (Homo sapiens, UniProt Q99500).
T3 construct: host or cells: CHO-K1
Nature of the experiment: Intracellular Ca2+ release (method 1), agonist potency, S1P3. As to the method:
as §1, §2, §3, §4, §5

Experiment [4] addresses T4, human S1P4 receptor (S1PR4) (Homo sapiens, UniProt O95977).
T4 construct: host or cells: CHO-K1
T4 sequence (O95977 1-384): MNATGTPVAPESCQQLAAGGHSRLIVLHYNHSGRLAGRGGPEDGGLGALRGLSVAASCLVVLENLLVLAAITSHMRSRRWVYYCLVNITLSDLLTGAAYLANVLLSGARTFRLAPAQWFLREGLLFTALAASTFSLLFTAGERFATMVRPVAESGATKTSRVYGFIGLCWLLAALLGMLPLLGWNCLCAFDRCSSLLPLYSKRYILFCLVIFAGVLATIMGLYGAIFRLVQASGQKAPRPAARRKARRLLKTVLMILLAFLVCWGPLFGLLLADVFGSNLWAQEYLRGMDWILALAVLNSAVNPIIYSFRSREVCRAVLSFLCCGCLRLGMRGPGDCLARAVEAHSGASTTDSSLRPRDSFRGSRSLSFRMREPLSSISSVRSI
Briefly: Intracellular Ca2+ release (method 1), agonist potency, S1P4. Particulars: CHO-K1 cells expressing human S1PR4. As to the method: as §1, §2, §3, §4, §5

The mark [5] stands for this setting: maximum effect in % of reference agonist phospho-fingolimod (100%).
The mark [6] stands for this setting: recombinant CHO-K1 cells expressing human S1PR5, aequorin, Gq/i5, Ca2+ release, read-out: S1P5 EC50 range.
The mark [7] stands for this setting: text value for reference compounds lacking the spiro-linked group, read-out: S1P5 EC50.
Setting [8] is: value for reference compounds, % of phospho-fingolimod efficacy.

Where a name gives a salt, the structure may show the parent alone. Read-outs that look alike come from different tables or passages of the source. A value given as a limit tells only on which side of the number the result lay.

T2 sequence (P21453 whole entry): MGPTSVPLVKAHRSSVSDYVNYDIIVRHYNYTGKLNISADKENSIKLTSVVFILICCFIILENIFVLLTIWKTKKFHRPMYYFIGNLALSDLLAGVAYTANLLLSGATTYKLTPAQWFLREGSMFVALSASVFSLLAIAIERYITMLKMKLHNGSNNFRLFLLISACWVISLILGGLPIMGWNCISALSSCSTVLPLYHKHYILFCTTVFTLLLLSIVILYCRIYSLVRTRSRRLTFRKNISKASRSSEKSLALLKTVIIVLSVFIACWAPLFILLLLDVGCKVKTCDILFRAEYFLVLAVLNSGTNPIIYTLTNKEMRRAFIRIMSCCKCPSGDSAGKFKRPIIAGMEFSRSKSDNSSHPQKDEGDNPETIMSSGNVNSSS
T1 sequence (Q9H228 whole entry): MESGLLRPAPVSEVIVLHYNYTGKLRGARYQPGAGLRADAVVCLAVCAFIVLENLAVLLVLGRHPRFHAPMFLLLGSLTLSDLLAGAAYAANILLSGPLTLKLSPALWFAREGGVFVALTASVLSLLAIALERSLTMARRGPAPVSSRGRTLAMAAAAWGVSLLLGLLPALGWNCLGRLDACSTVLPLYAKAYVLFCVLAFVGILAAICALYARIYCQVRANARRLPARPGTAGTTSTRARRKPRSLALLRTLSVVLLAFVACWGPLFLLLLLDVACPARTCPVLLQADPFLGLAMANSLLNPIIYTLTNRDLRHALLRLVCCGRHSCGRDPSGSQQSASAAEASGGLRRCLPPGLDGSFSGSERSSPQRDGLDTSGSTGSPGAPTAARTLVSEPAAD
T3 sequence (Q99500 whole entry): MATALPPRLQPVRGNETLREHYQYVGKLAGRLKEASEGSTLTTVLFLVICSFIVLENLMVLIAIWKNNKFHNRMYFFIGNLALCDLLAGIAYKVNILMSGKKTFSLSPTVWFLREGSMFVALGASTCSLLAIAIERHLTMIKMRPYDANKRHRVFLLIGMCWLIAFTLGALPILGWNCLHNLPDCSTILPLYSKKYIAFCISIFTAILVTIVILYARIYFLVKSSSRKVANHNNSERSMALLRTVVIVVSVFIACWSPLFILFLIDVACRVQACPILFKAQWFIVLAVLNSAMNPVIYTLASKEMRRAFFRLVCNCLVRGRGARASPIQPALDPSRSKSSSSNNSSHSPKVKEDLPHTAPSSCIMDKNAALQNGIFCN

As usually defined, the Emax is the maximal effect, on the per cent scale that the assay sets. What is called EC50 is the concentration at which the effect is half-maximal. In the case of `O=C(O)CCN1Cc2ccc(C#Cc3cccc(Cl)n3)cc2C2(CC2)C1` [Compound 40, 3-(6′-((6-chloropyridin-2-yl)ethynyl)-1′H-spiro[cyclopropane-1,4′-isoquinolin]-2′(3′H)-yl)propanoic acid acetic acid salt (1:1)], in experiment [1] (setting [5]), the Emax lay within 50 to 100%. The EC50 is 100 to 1000 nM in experiment [1] (setting [6]), over 1000 nM in experiment [2], over 1000 nM in experiment [3] (CHO-K1 cells expressing human S1PR3) and 100 to 1000 nM in experiment [4].
With `CC(CC(=O)O)CN1Cc2ccc(C#Cc3ccc(C(C)C)cc3)cc2C2(CC2)C1` (centres unmarked) [Compound 60, 4-(6′-((4-isopropylphenyl)ethynyl)-1′H-spiro[cyclopropane-1,4′-isoquinolin]-2′(3′H)-yl)-3-methylbutanoic acid], in experiment [1] (setting [5]), the maximal effect (Emax) fell in the range of 50 to 100%. Further, the EC50 in experiment [1] (setting [6]) was under 10 nM; in experiment [2], over 1000 nM; in experiment [4] (cells given as bound) it was over 1000 nM.
Consider `CC(CC(=O)O)CN1Cc2ccc(C#Cc3ccsc3)cc2C2(CC2)C1` (centres unmarked) [Compound 68, 3-methyl-4-(6′-(thiophen-3-ylethynyl)-1′H-spiro[cyclopropane-1,4′-isoquinolin]-2′(3′H)-yl)butanoic acid], for which, in experiment [1] (setting [5]), the Emax was in the range of 50 to 100%. In addition, the EC50 is 10 to 100 nM in experiment [1] (setting [6]), over 1000 nM in experiment [2] and over 1000 nM in experiment [4] (cells given as bound).
Consider `COc1ncc(C#Cc2ccc3c(c2)C2(CC2)CN(CCCC(=O)O)C3)cc1F` [Compound 55, 4-(6′-((5-fluoro-6-methoxypyridin-3-yl)ethynyl)-1′H-spiro[cyclopropane-1,4′-isoquinolin]-2′(3′H)-yl)butanoic acid], for which the Emax in experiment [1] (setting [5]) was under 50%. The EC50 in experiment [1] (setting [6]) is 1000 to 10000 nM; in experiment [2], over 1000 nM; in experiment [4] (cells given as bound) it was over 1000 nM.
Consider `CCOc1ccc(C#Cc2ccc3c(c2)C2(CC2)CN(CCCC(=O)O)C3)c(C)n1` [Compound 53, 4-(6′-((6-ethoxy-2-methylpyridin-3-yl)ethynyl)-1′H-spiro[cyclopropane-1,4′-isoquinolin]-2′(3′H)-yl)butanoic acid], for which, in experiment [1] (setting [5]), the Emax was in the range of 50 to 100%. In addition, the figures for the EC50 in experiment [1] (setting [6]), in experiment [2] and in experiment [4] (cells given as bound) were 100 to 1000 nM, over 1000 nM and over 1000 nM, respectively.
Turning to `CCOc1cc(C)c(C#Cc2ccc3c(c2)C2(CC2)CN(CCCC(=O)O)C3)cn1` [Compound 49, 4-(6′-((6-ethoxy-4-methylpyridin-3-yl)ethynyl)-1′H-spiro[cyclopropane-1,4′-isoquinolin]-2′(3′H)-yl)butanoic acid], the Emax in experiment [1] (setting [5]) was 50 to 100%. The EC50 was 10 to 100 nM in experiment [1] (setting [6]), over 1000 nM in experiment [2] and over 1000 nM in experiment [4] (cells given as bound).
In the case of `CCOc1ccc(C#Cc2ccc3c(c2)C2(CC2)CN(CC(=O)O)C3)cc1` [Compound 5, 2′-(carboxymethyl)-6′-((4-ethoxyphenyl)ethynyl)-2′,3′-dihydro-1′H-spiro[cyclopropane-1,4′-isoquinolin]-2′-ium 2,2,2-trifluoroacetate], the Emax in experiment [1] (setting [5]) lay in the range of 50 to 100%. The 50% effective concentration (EC50) in experiment [1] (setting [6]) was 100 to 1000 nM; in experiment [2], over 1000 nM; in experiment [4] (cells given as bound), over 1000 nM.
As for `CCOc1ccc(C#Cc2ccc3c(c2)C2(CC2)CN(C2CC(C(=O)O)C2)C3)nc1` (centres unmarked) [Compound 73, 3-(6′-((5-ethoxypyridin-2-yl)ethynyl)-1′H-spiro[cyclopropane-1,4′-isoquinolin]-2′(3′H)-yl)cyclobutanecarboxylic acid], the maximal effect (Emax) in experiment [1] (setting [5]) lay within 50 to 100%. Also, the EC50 was 1000 to 10000 nM in experiment [1] (setting [6]), over 1000 nM in experiment [2] and over 1000 nM in experiment [4] (cells given as bound).
Take `CCOc1ccc(C#Cc2ccc3c(c2)C2(CC2)CN(C2CC(C(=O)O)C2)C3)cc1F` (centres unmarked) [Compound 72, 3-(6′-((4-ethoxy-3-fluorophenyl)ethynyl)-1′H-spiro[cyclopropane-1,4′-isoquinolin]-2′(3′H)-yl)cyclobutanecarboxylic acid]: in experiment [1] (setting [5]), the Emax was in the range of 50 to 100%. The EC50 in experiment [1] (setting [6]) was 10 to 100 nM; in experiment [2], over 1000 nM; in experiment [4] (cells given as bound), over 1000 nM.
Take `CCOc1cc(C)c(C#Cc2ccc3c(c2)C2(CC2)CN(CC(C)CC(=O)O)C3)cn1` (centres unmarked) [Compound 67, 4-(6′-((6-ethoxy-4-methylpyridin-3-yl)ethynyl)-1′H-spiro[cyclopropane-1,4′-isoquinolin]-2′(3′H)-yl)-3-methylbutanoic acid]: the Emax in experiment [1] (setting [5]) lay within 50 to 100%. In addition, the figures for the concentration for a half-maximal effect (EC50) in experiment [1] (setting [6]), in experiment [2] and in experiment [4] (cells given as bound) were 10 to 100 nM, over 1000 nM and over 1000 nM, respectively.
As to `CC(CC(=O)O)CN1Cc2ccc(C#Cc3cccc(F)c3F)cc2C2(CC2)C1` (centres unmarked) [Compound 66, 4-(6′-((2,3-difluorophenyl)ethynyl)-1′H-spiro[cyclopropane-1,4′-isoquinolin]-2′(3′H)-yl)-3-methylbutanoic acid], in experiment [1] (setting [5]), the Emax fell in the range of 50 to 100%. In addition, the figures for the EC50 in experiment [1] (setting [6]), in experiment [2] and in experiment [4] (cells given as bound) were 100 to 1000 nM, over 1000 nM and over 1000 nM, respectively.
As to `CCOc1ncc(C#Cc2ccc3c(c2)C2(CC2)CN(CCCC(=O)O)C3)cc1F` [Compound 51, 4-(6′-((6-ethoxy-5-fluoropyridin-3-yl)ethynyl)-1′H-spiro[cyclopropane-1,4′-isoquinolin]-2′(3′H)-yl)butanoic acid], the maximal effect (Emax) in experiment [1] (setting [5]) was 50 to 100%. Besides, the EC50 in experiment [1] (setting [6]) is 100 to 1000 nM; in experiment [2] it was over 1000 nM; in experiment [4] (cells given as bound), over 1000 nM.
`CC(CC(=O)O)CN1Cc2ccc(C#Cc3ccc(OC(C)C)nc3)cc2C2(CC2)C1` (centres unmarked) [Compound 59, 4-(6′-((6-isopropoxypyridin-3-yl)ethynyl)-1′H-spiro[cyclopropane-1,4′-isoquinolin]-2′(3′H)-yl)-3-methylbutanoic acid]: the Emax in experiment [1] (setting [5]) fell in the range of 50 to 100%. Besides, the values for the EC50 in experiment [1] (setting [6]), in experiment [2] and in experiment [4] (cells given as bound) were under 10 nM, over 1000 nM and over 1000 nM, respectively.
Turning to `COc1ccc(C#Cc2ccc3c(c2)C2(CC2)CN(CCCC(=O)O)C3)c(C)n1` [Compound 57, 4-(6′-((6-methoxy-2-methylpyridin-3-yl)ethynyl)-1′H-spiro[cyclopropane-1,4′-isoquinolin]-2′(3′H)-yl)butanoic acid], the Emax in experiment [1] (setting [5]) fell in the range of 50 to 100%. Also, the EC50 is 1000 to 10000 nM in experiment [1] (setting [6]), over 1000 nM in experiment [2] and over 1000 nM in experiment [4] (cells given as bound).
Turning to `CC(CC(=O)O)CN1Cc2ccc(C#Cc3ccc(OC(C)C)cc3)cc2C2(CC2)C1` (centres unmarked) [Compound 62, 4-(6′-((4-isopropoxyphenyl)ethynyl)-1′H-spiro[cyclopropane-1,4′-isoquinolin]-2′(3′H)-yl)-3-methylbutanoic acid], the Emax in experiment [1] (setting [5]) is over 100%. Moreover, the EC50 in experiment [1] (setting [6]) was under 10 nM; in experiment [2] it was over 1000 nM; in experiment [4] (cells given as bound), over 1000 nM.
With `O=C(O)CCN1CCc2cc(C#Cc3c(Cl)cccc3Cl)ccc2C1` [Reference compound 2, 3-(6-((2,6-dichlorophenyl)ethynyl)-3,4-dihydroisoquinolin-2 (1H)-yl)propanoic acid, reference compound], the 50% effective concentration (EC50) in experiment [1] (setting [7]) was 19.2 nM; in experiment [3] (value for reference compounds), over 1000 nM. Besides, the Emax in experiment [1] (setting [8]) was 41%.
For the molecule `O=C(O)CCCN1Cc2ccc(C#Cc3ccc4c(c3)OCO4)cc2C2(CC2)C1` [Compound 56, 4-(6′-(benzo[d][1,3]dioxol-5-ylethynyl)-1′H-spiro[cyclopropane-1,4′-isoquinolin]-2′(3′H)-yl)butanoic acid], the Emax in experiment [1] (setting [5]) lay in the range of 50 to 100%. Moreover, the 50% effective concentration (EC50) in experiment [1] (setting [6]) is 1000 to 10000 nM; in experiment [2] it was over 1000 nM; in experiment [4] (cells given as bound), over 1000 nM.
On to `O=C(O)CCN1CCc2cc(C#Cc3cccc(F)c3F)ccc2C1` [Reference compound 1, 3-(6-((2,3-difluorophenyl)ethynyl)-3,4-dihydroisoquinolin-2(1H)-yl)propanoic acid, reference compound], for which the EC50 in experiment [1] (setting [7]) is 29 nM; in experiment [3] (value for reference compounds), over 1000 nM. In addition, the Emax in experiment [1] (setting [8]) turned out to be 60%.

(Values after patent publication US20210147381A1, “1,2,3,4-SUBSTITUTED QUINOLINE COMPOUNDS AS SIP MODULATORS” (AbbVie Deutschland GmbH & Co. KG, priority 2017, published 2021).)
